The values below come from US9278963B2, “Pyrimidine hydroxy amide compounds as histone deacetylase inhibitors” (Acetylon Pharmaceuticals, Inc., priority 2013, dated 2016).

Structures are written as SMILES.

The subject of data set [1] is SK-N-BE(2) or SH-SY5Y neuroblastoma cells. Briefly: Neuroblastoma differentiation index. It counts as cell-based. To be noted: for differentiation index, low-concentration ATRA: 0.25 μM ATRA, alone or with HDAC inhibitor. As for the experimental part:
SK-N-BE(2) or SH-SY5Y neuroblastoma cells were treated with varying concentrations of either Compound X or Y, and/or ATRA (all trans retinoic acid). The differentiation index was measured.
SK-N-BE(2) or SH-SY5Y neuroblastoma cells were treated with varying concentrations of either Compound X or Y, and/or ATRA (all trans retinoic acid). The differentiation index was measured. As a control, SK-N-BE(2) or SH-SY5Y neuroblastoma cells were treated with varying concentrations of ATRA.

For data set [2], the system named is SH-SY5Y neuroblastoma cells. As to the kind of experiment: Neuroblastoma cell cycle by flow cytometry, SH-SY5Y. Type of data set: cell-based. As for the experimental part:
The following is a quick summary of the neuroblastoma cell cycle experiments. Adherent cells were plated into 12-well plates at 10^6 cells/well and allowed to adhere for 2-4 hours. Compounds were dispensed in DMSO at the indicated concentrations using an automated liquid handling system (Tecan D300) and incubated for the indicated times at 37° C. with 5% CO2. Cells were harvested with enzyme-free cell disassociation solution and washed with buffered saline. Cells were fixed overnight with 100% ethanol. Cell cycle was assessed by flow cytometry using the Molecular Probes FxCycle PI/RNase Staining Solution kit according to manufacture protocols.
The protocol for the cell cycle experiments was as follows. The day before the experiment, the cells were fed in the flask by doubling the media. Then, the cells were harvested by adding non-enzymatic cell dissociation media and incubating at 37° C. for 15 minutes. Next, the cells were transferred to a 50 ml tube and pipet to create a single-cell suspension. The cells were then washed with PBS buffer. Then, the cells were resuspended in complete media at 5×10^5 cells per ml. Next, 2 ml of cells were transferred to 12-well plates. Then, the treatment compounds were dispensed into each well using the D300 liquid handler. The cells were incubated for the indicated time at 37° C. Then, the cells were harvested by adding 500 μl enzyme free cell dissociation solution and incubating at 37° C. for 15 minutes. Next, the cells were spun into a pellet and then washed with PBS. Then, 500 μl 100% EtOH was added and incubated at 4° C. overnight. Then, the cells were washed 3× with PBS. The cells were then resuspended in […] FxCycle PI/RNase solution, and incubated for 2-4 hours at room temperature. Finally, the cells were assayed by flow cytometry.
SH-SY5Y neuroblastoma cells were treated with varying concentrations of either Compound X or Y, and/or ATRA (all trans retinoic acid). […] In addition, the fold change of p21 was also calculated. […] The HDACi/ATRA combination effects were modest, with little difference compared to single agents.
(In general: In flow cytometry, cells or beads pass a laser one at a time.)

The test system of data set [3] is human CD34+ bone marrow cells. Briefly: Cellular viability of cultured CD34+ bone marrow cells. The note with it: 1 μM, treatment for 4 days.
In data set [4] the test system is SK-N-BE(2) neuroblastoma cells. As to the kind of experiment: Neuroblastoma cell cycle and p21, SK-N-BE(2). Type of data set: cell-based. The note with it: 4 days. As for the experimental part: SK-N-BE(2) neuroblastoma cells were treated with varying concentrations of either Compound X or Y, and/or ATRA (all trans retinoic acid). The percentage of the population of the cells at various stages of the cell cycle were measured after 4 days. In addition, the fold change of p21 was also calculated. […] The HDACi/ATRA combination effects were modest, with little difference compared to single agents.

The target in a further data set is HDAC2 (Homo sapiens (Human), UniProt Q92769). Briefly: HDAC enzyme assay, HDAC2. It counts as biochemical. The method, then:
(§1) Compounds for testing were diluted in DMSO to 50 fold the final concentration and a ten point three fold dilution series was made. The compounds were diluted in assay buffer (50 mM HEPES, pH 7.4, 100 mM KCl, 0.001% Tween-20, 0.05% BSA, 20 μM TCEP) to 6 fold their final concentration. The HDAC enzymes (purchased from BPS Biosciences) were diluted to 1.5 fold their final concentration in assay buffer. The tripeptide substrate and trypsin at 0.05 μM final concentration were diluted in assay buffer at 6 fold their final concentration. The final enzyme concentrations used in these assays were 3.3 ng/ml (HDAC1), 0.2 ng/ml (HDAC2), 0.08 ng/ml (HDAC3) and 2 ng/ml (HDAC6). The final substrate concentrations used were 16 μM (HDAC1), 10 μM (HDAC2), 17 μM (HDAC3) and 14 μM (HDAC6).
(§2) Five μl of compounds and 20 μl of enzyme were added to wells of a black, opaque 384 well plate in duplicate. Enzyme and compound were incubated together at room temperature for 10 minutes. Five μ1 of substrate was added to each well, the plate was shaken for 60 seconds and placed into a Victor 2 microtiter plate reader. The development of fluorescence was monitored for 60 min and the linear rate of the reaction was calculated. The IC50 was determined using Graph Pad Prism by a four parameter curve fit.

The next data set addresses HDAC6 (Homo sapiens (Human), UniProt Q9UBN7). As to the kind of experiment: HDAC enzyme assay, HDAC6. It counts as biochemical. As for the experimental part:
as §1
as §2, with “fit. The IC50 values obtained for several of the compounds of this invention are found in Table 1.” for “fit.”

Another data set has as its target HDAC1 (Homo sapiens (Human), UniProt Q13547). As to the kind of experiment: HDAC enzyme assay, HDAC1. Type of data set: biochemical. As for the experimental part:
as §1, §2

A further data set concerns the target HDAC3 (Homo sapiens (Human), UniProt O15379). Briefly: HDAC enzyme assay, HDAC3. It counts as biochemical. As for the experimental part:
Compounds for testing were diluted in DMSO to 50 fold the final concentration and a ten point three fold dilution series was made. The compounds were diluted in assay buffer (50 mM HEPES, pH 7.4, 100 mM KCl, 0.001% Tween-20, 0.05% BSA, 20 μM TCEP) to 6 fold their final concentration. […] The tripeptide substrate and trypsin at 0.05 μM final concentration were diluted in assay buffer at 6 fold their final concentration. The final enzyme concentrations used in these assays were 3.3 ng/ml (HDAC1), 0.2 ng/ml (HDAC2), 0.08 ng/ml (HDAC3) and 2 ng/ml (HDAC6).
as §2

Chain of HDAC2 (Q92769 whole entry): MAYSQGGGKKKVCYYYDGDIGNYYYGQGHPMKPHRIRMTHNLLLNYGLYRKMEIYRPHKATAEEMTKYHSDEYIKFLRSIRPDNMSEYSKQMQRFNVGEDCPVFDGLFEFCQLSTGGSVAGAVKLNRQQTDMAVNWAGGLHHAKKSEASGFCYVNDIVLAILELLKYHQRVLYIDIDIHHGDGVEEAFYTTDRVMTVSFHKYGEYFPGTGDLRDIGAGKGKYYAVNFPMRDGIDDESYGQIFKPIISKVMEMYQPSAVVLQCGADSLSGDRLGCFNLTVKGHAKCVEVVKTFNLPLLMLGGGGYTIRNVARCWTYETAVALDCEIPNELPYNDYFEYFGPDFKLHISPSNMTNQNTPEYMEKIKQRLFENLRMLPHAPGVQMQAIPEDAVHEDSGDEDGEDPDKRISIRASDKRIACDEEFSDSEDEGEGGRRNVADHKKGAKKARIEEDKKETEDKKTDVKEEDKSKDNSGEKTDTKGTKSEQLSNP
Chain of HDAC6 (Q9UBN7 whole entry): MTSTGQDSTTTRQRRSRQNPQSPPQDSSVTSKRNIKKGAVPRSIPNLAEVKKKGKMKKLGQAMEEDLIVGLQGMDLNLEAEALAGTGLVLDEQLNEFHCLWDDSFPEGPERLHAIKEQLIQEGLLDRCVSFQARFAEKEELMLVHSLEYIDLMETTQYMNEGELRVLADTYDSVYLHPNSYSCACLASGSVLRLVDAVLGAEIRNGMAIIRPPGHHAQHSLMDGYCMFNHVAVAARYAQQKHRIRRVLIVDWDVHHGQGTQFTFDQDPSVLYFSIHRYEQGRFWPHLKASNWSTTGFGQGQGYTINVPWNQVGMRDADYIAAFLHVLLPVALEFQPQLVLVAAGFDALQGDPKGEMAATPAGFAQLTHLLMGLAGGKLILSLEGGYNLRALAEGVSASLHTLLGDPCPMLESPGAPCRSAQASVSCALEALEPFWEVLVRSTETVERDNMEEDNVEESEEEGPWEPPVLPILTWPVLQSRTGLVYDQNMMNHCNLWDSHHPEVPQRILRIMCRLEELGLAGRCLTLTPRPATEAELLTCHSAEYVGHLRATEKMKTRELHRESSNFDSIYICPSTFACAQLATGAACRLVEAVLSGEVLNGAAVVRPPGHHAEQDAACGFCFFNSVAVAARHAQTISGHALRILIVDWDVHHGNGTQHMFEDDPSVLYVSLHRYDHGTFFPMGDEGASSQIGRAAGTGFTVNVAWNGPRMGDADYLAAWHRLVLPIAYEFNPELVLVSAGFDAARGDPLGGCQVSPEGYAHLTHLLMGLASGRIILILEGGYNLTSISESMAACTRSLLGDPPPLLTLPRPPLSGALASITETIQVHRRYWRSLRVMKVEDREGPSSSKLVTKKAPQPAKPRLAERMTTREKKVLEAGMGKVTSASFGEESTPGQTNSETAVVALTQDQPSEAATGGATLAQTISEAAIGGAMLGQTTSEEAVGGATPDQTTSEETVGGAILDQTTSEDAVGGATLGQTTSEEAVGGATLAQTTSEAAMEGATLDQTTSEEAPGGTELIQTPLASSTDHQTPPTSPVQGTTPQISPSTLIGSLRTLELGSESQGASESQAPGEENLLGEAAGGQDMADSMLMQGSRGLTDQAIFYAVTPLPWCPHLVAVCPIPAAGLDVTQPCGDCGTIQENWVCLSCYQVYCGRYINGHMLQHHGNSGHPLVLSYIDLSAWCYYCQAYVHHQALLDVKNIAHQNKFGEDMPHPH
Chain of HDAC3 (O15379 whole entry): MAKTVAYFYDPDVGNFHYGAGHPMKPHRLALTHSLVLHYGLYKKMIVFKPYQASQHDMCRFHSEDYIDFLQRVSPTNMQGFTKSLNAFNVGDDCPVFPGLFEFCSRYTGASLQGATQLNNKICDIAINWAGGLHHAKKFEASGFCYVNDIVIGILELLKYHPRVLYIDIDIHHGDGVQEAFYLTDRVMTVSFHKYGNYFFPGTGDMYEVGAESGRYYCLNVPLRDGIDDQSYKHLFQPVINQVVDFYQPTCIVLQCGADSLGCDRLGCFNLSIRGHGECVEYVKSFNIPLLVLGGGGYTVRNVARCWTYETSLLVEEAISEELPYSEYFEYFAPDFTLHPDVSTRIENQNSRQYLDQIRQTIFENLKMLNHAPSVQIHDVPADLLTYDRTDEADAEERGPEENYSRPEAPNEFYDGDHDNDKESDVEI
Chain of HDAC3 (Q9Y618 395-489 partner): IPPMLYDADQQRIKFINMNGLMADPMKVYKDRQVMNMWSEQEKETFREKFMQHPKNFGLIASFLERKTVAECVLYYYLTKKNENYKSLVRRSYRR
Chain of HDAC1 (Q13547 whole entry): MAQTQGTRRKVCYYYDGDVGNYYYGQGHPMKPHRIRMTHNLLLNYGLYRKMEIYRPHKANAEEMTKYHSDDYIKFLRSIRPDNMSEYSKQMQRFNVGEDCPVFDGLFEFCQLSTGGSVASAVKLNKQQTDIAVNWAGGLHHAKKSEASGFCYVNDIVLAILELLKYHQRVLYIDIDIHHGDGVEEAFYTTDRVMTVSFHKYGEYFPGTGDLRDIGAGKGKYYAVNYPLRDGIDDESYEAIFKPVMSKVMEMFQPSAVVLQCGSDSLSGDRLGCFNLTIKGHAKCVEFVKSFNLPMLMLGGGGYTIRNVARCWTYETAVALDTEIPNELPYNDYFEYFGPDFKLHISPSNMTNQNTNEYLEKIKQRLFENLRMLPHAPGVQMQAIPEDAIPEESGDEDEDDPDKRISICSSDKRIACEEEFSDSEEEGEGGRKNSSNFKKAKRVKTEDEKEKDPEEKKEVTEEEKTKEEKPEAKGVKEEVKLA

For the compound `CC1=C(/C=C/C(C)=C/C=C/C(C)=C/C(=O)O)C(C)(C)CCC1` [ATRA, all trans retinoic acid, reference compound], the “differentiation index, low-concentration ATRA” value in data set [1] was “sub-optimal”. Moreover, in data set [2] (72 hours, 0.5, 2 and 5 μM (ATRA 1 μM)), the “percent of the cell population in G2, S, G1 and Sub G1 phase” value was “little impact on cell cycle”.

In the case of `O=C(CCCCCCNC(=O)c1cnc(N(c2ccccc2)c2ccccc2)nc1)NO` [Compound A, 2-(diphenylamino)-N-(7-(hydroxyamino)-7-oxoheptyl) pyrimidine-5-carboxamide, reference compound], the “decrease in cells viability” value in data set [3] was determined as 20 fold.

Take `O=C(CCCCCCNC(=O)c1cnc(N(c2ccccc2)c2ccccc2Cl)nc1)NO` [Compound Y, 2-((2-chlorophenyl)(phenyl)amino)-N-(7-(hydroxyamino)-7-oxoheptyl)pyrimidine-5-carboxamide]: the “cell cycle stages and fold change of p21” value in data set [4] and in data set [2] (4 days) was “induced cell cycle arrest” in each case. For the same compound, the “differentiation index, low-concentration ATRA” value in data set [1] is on record as “potentiated 0.25 μM ATRA”. The differentiation index result in data set [1] (varying concentrations, alone) is given as “induced an increase in the differentiation index”.

As to `CC(=O)N1CCC(Nc2ncc(C(=O)NO)cn2)(C(C)C)CC1` [Compound 005, 2-((1-acetyl-4-isopropylpiperidin-4-yl)amino)-N-hydroxypyrimidine-5-carboxamide], the IC50 against HDAC2 was 2390 nM; against HDAC6, 5.9 nM; at HDAC1, 1830 nM; on HDAC3, 8180 nM.

Regarding `C[C@@H](C(=O)N1CCC(C)(Nc2ncc(C(=O)NO)cn2)CC1)c1ccccc1` [Compound 027, (R)—N-hydroxy-2-((4-methyl-1-(2-phenylpropanoyl)piperidin-4-yl)amino)pyrimidine-5-carboxamide], the half-maximal inhibitory concentration (IC50) at HDAC2 came to 103 nM; against HDAC6, 12 nM; against HDAC1, 130 nM; on HDAC3, 422 nM.

Turning to `O=C(NO)c1cnc(NC2(c3ccccc3)CCN(C(=O)Nc3ccc(F)cc3)CC2)nc1` [Compound 014, 2-((1-((4-fluorophenyl)carbamoyl)-4-phenylpiperidin-4-yl)amino)-N-hydroxypyrimidine-5-carboxamide], the IC50 against HDAC2 worked out at 43 nM; against HDAC6, 2 nM; against HDAC1, 33 nM; against HDAC3 it was 1070 nM.

On to `CN(C(=O)N1CCC(Nc2ncc(C(=O)NO)cn2)(c2ccccc2)CC1)c1ccccc1` [Compound 012, N-hydroxy-2-((1-(methyl(phenyl)carbamoyl)-4-phenylpiperidin-4-yl)amino)pyrimidine-5-carboxamide], for which the IC50 came out at 377 nM at HDAC2, 2.2 nM against HDAC6, 266 nM at HDAC1 and 1620 nM at HDAC3.

As for `O=C(NO)c1cnc(NC2(c3ccccc3)CCN(C(=O)Cc3c[nH]c4ccccc34)CC2)nc1` [Compound 028, 2-((1-(2-(1H-indol-3-yl)acetyl)-4-phenylpiperidin-4-yl)amino)-N-hydroxypyrimidine-5-carboxamide], the IC50 was 2 nM against HDAC2, 2.8 nM at HDAC6, 3 nM against HDAC1 and 24 nM at HDAC3.

Take `Cc1ccc(NC(=O)N2CCC(Nc3ncc(C(=O)NO)cn3)(c3ccccc3)CC2)cc1` [Compound 015, N-hydroxy-2-((4-phenyl-1-(p-tolylcarbamoyl)piperidin-4-yl)amino)pyrimidine-5-carboxamide]: the IC50 is 46 nM at HDAC2, 2 nM at HDAC6, 34 nM against HDAC1 and 693 nM against HDAC3.

`CCOC(=O)N1CCC(Nc2ncc(C(=O)NO)cn2)(C(C)C)CC1` [Compound 006, ethyl 4-((5-(hydroxycarbamoyl)pyrimidin-2-yl)amino)-4-isopropylpiperidine-1-carboxylate]: the IC50 on HDAC2 stood at 809 nM; on HDAC6 it was 4 nM; against HDAC1, 697 nM; against HDAC3, 3780 nM.

For the compound `Cc1ccccc1S(=O)(=O)N1CCC(Nc2ncc(C(=O)NO)cn2)(c2ccccc2)CC1` [Compound 020, N-hydroxy-2-((4-phenyl-1-(o-tolylsulfonyl)piperidin-4-yl)amino)pyrimidine-5-carboxamide], the IC50 on HDAC2 stood at 423 nM; at HDAC6, 4.5 nM; against HDAC1, 372 nM; against HDAC3, 1980 nM.

In the case of `CC(C)C[C@H](C(=O)N1CCC(Nc2ncc(C(=O)NO)cn2)(c2ccccc2)CC1)c1ccccc1` (stereo in doubt) [Compound 029, N-hydroxy-2-((1-(4-methyl-2-phenylpentanoyl)-4-phenylpiperidin-4-yl)amino)pyrimidine-5-carboxamide], the IC50 on HDAC2 was 93 nM; against HDAC6, 11 nM; against HDAC1 it was 102 nM; against HDAC3 it was 914 nM.

With `CNC(=O)N1CCC(Nc2ncc(C(=O)NO)cn2)(c2ccccc2)CC1` [Compound 016, N-hydroxy-2-((1-(methylcarbamoyl)-4-phenylpiperidin-4-yl)amino)pyrimidine-5-carboxamide], the IC50 at HDAC2 was 207 nM; at HDAC6, 1.7 nM; against HDAC1, 170 nM; at HDAC3, 987 nM.

Consider `CC(C)[C@H](C(=O)N1CCC(Nc2ncc(C(=O)NO)cn2)(c2ccccc2)CC1)c1ccccc1` (stereo in doubt) [Compound 026, N-hydroxy-2-((1-(3-methyl-2-phenylbutanoyl)-4-phenylpiperidin-4-yl)amino)pyrimidine-5-carboxamide], for which the IC50 stood at 173 nM against HDAC2, 5 nM against HDAC6, 206 nM at HDAC1 and 1100 nM against HDAC3.

What is called IC50 is the midpoint of a concentration-inhibition curve. A high value points to a need for much substance.
